Measurements taken from patent US11912701B2, “Protein kinase inhibitors for promoting liver regeneration or reducing or preventing hepatocyte death” (HEPAREGENIX GMBH, priority 2018, dated 2024).

Assays:
[1] = molecular target: T1, JNK1 (Homo sapiens, UniProt P45983); experiment: 33PanQinase enzyme assay, JNK1; assay type: biochemical; set-up: purchased ProQinase GmbH, Freiburg, Germany (33PanQinase Assay Service); details: ratio IC50(JNK1)/IC50(MKK4)
Outline: (§1)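 33Pi incorporation, read by microplate scintillation counting, measured kinase activity after 60 min at 30 °C. Reactions were quenched with 2% (v/v) H3PO4 and washed with 0.9% NaCl. IC50 derived by least-squares fitting; single doses reported as % residual activity.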
Target sequence in this assay (P45983 whole entry): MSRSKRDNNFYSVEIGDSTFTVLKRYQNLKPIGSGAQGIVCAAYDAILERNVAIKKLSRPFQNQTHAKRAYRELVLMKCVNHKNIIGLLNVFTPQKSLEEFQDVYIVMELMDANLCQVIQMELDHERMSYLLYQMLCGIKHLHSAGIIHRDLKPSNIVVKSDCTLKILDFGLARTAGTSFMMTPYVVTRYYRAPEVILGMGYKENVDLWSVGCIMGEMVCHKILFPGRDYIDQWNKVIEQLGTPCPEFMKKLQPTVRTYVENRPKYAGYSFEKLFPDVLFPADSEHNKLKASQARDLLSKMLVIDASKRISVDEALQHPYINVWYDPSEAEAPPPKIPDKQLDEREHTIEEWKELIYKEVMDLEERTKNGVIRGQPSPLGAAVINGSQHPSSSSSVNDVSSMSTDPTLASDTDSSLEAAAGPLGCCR

[2] = molecular target: T2, MKK4 (Homo sapiens, UniProt P45985); experiment: 33PanQinase enzyme assay, MKK4; assay type: biochemical; details: assay 'IC50'; read-out: Potency MKK4 (IC50)
T2 construct: purchased ProQinase GmbH, Freiburg, Germany (33PanQinase Assay Service)
T2 sequence (P45985 1-399): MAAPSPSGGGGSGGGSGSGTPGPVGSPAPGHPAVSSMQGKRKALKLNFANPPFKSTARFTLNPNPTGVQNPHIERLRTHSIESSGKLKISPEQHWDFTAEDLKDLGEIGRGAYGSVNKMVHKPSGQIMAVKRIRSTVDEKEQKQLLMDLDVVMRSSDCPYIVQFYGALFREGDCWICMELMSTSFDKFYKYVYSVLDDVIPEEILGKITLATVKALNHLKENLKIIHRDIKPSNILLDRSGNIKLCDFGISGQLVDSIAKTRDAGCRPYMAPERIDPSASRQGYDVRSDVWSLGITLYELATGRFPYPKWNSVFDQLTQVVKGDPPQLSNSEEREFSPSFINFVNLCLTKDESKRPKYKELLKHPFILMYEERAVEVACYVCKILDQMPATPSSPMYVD
Outline: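 Inhibition measured as 33Pi transfer to substrate after a 60-min, 30 °C reaction, acid-stopped and scintillation-counted.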

[3] = molecular target: T3, MKK7 (Homo sapiens, UniProt O14733); experiment: 33PanQinase enzyme assay, MKK7; assay type: biochemical; set-up: purchased ProQinase GmbH, Freiburg, Germany (33PanQinase Assay Service); details: ratio IC50(MKK7)/IC50(MKK4)
T3 sequence (O14733 1-419): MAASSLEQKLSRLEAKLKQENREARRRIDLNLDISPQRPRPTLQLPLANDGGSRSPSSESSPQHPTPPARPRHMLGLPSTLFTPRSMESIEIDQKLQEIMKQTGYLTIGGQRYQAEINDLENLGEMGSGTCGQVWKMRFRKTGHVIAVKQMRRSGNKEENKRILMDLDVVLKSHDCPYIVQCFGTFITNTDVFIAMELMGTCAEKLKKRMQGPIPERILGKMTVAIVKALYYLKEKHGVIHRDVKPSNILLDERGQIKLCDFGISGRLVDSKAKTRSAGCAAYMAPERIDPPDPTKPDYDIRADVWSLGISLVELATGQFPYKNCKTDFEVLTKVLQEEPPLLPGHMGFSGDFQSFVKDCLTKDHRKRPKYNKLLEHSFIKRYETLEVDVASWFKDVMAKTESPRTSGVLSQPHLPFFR
Outline: as §1

[4] = molecular target: T3, MKK7; experiment: KINOMEscan competition binding assay, MKK7; set-up: M1/R419; host or cells: HEK-293; details: ratio PoC (off-target)/PoC (MKK4)
Outline: (§2)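 DNA-tagged kinases expressed in HEK-293 cells compete between immobilized ligand on blocked beads and test compound at 100 nM; kinase retained on beads quantified by qPCR of the tag.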

[5] = molecular target: T4, BRaf (Homo sapiens, UniProt P15056); experiment: 33PanQinase enzyme assay, BRaf; assay type: biochemical; details: ratio IC50(BRaf)/IC50(MKK4)
T4 construct: purchased ProQinase GmbH, Freiburg, Germany (33PanQinase Assay Service)
T4 sequence (P15056 whole entry, species assumed): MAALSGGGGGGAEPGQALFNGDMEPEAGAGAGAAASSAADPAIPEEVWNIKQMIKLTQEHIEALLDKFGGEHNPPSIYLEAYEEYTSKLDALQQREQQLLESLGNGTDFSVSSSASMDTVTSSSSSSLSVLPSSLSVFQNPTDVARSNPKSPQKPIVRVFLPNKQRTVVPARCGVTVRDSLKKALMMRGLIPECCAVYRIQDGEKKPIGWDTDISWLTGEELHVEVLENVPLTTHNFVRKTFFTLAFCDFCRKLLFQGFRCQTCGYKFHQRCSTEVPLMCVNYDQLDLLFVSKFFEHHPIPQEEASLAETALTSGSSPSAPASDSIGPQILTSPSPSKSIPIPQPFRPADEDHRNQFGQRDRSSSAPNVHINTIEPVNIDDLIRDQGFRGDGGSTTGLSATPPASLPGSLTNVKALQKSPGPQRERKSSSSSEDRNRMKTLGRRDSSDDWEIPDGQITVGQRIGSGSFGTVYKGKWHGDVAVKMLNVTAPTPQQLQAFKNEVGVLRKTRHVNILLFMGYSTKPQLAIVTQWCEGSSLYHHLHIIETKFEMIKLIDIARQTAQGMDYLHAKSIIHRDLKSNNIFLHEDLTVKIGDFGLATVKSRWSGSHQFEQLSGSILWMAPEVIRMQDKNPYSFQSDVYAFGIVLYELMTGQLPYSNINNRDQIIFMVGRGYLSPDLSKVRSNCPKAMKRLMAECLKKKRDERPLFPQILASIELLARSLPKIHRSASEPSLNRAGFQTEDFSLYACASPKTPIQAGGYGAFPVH
Outline: as §1

[6] = molecular target: T4, BRaf; experiment: KINOMEscan competition binding assay, BRaf; details: ratio PoC (off-target)/PoC (MKK4)
Outline: as §2

[7] = molecular target: T5, MKK4 (Homo sapiens, UniProt P45985); experiment: KINOMEscan competition binding assay, MKK4; details: residual percent of control binding (PoC) at 100 nM
T5 construct: S84/D399; host or cells: HEK-293
T5 sequence (P45985 84-399): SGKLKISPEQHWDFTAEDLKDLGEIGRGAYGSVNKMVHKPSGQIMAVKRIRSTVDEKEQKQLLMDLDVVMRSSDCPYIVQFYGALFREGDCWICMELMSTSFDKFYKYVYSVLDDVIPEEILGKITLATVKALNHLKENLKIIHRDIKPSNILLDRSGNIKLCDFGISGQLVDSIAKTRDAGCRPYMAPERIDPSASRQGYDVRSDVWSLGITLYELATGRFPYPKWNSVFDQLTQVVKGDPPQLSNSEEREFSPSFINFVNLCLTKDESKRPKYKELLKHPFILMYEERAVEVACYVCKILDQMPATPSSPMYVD
Outline: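 Tested at 100 nM and reported as percent of control binding (PoC). MKK4 was produced in HEK-293 cells and DNA-tagged. Displacement from ligand-coated, blocked beads was read by qPCR of eluted kinase.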

[8] = molecular target: T1, JNK1; experiment: KINOMEscan competition binding assay, JNK1; set-up: M1/Q384; host or cells: HEK-293; details: ratio PoC (off-target)/PoC (MKK4)
Outline: as §2
Target sequence in this assay (P45983 1-384 isoform P45983-2): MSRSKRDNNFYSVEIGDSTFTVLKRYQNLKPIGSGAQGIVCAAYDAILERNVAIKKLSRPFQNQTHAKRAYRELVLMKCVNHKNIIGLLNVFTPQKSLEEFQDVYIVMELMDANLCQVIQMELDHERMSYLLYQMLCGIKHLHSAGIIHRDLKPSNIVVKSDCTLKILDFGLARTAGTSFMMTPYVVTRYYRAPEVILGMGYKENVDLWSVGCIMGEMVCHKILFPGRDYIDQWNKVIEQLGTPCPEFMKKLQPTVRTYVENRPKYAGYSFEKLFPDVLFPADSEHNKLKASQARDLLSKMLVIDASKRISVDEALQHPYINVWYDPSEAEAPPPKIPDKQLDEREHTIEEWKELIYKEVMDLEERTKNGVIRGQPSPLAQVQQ

Selectivity JNK1, IC50(off-target)/IC50(MKK4) [1] | IC50 [2] [µM] | Selectivity IVIKK7, IC50(off-target)/IC50(MKK4) [3] | selectivity based on % Ctrl @100 nM vs. MKK7 [4] | Selectivity Braf, IC50(off-target)/IC50(MKK4) [5] | selectivity based on % Ctrl @100 nM vs. Braf [6] | MKK4 [% Ctrl @ 100 nM [7] | selectivity based on % Ctrl @100 nM vs. JNK1 [8] | Structure (SMILES)
+ (10 ≥ IC50(off-target)/IC50(MKK4) > 3) | 0.1 to 1 | +++ (IC50(off-target)/IC50(MKK4) > 100) | ++ (100 ≥ ratio > 10) | ◯ (3 ≥ IC50(off-target)/IC50(MKK4)) | ++ (100 ≥ ratio > 10) | ++ (1 ≤ PoC < 3) | ++ (100 ≥ ratio > 10) | CCCS(=O)(=O)Nc1ccc(F)c(C(=O)c2c[nH]c3ncc(-c4ccccc4OC)cc23)c1F [Example 102, N-(2,4-difluoro-3-(5-(2-methoxyphenyl)-1H-pyrrolo[2,3-b]pyridine-3-carbonyl)phenyl)propane-1-sulfonamide]
+++ (IC50(off-target)/IC50(MKK4) > 100) | < 0.1 | +++ (IC50(off-target)/IC50(MKK4) > 100) | +++ (Ratio > 100) | +++ (IC50(off-target)/IC50(MKK4) > 100) | +++ (Ratio > 100) | +++ (PoC < 1) | +++ (Ratio > 100) | O=C(c1ccc(F)c(NS(=O)(=O)CCC(F)(F)F)c1F)c1c[nH]c2ncc(-c3cnc(NC4CC4)nc3)cc12 [Example 182]
+++ (IC50(off-target)/IC50(MKK4) > 100) | < 0.1 | +++ (IC50(off-target)/IC50(MKK4) > 100) | +++ (Ratio > 100) | +++ (IC50(off-target)/IC50(MKK4) > 100) | +++ (Ratio > 100) | +++ (PoC < 1) | +++ (Ratio > 100) | CCCS(=O)(=O)Nc1c(F)ccc(C(=O)c2c[nH]c3ncc(-c4ccc(C)nc4)cc23)c1F [Example 229, N-(2,6-difluoro-3-(5-(6-methylpyridin-3-yl)-1H-pyrrolo[2,3-b]pyridine-3-carbonyl)phenyl)propane-1-sulfonamide]
+ (10 ≥ IC50(off-target)/IC50(MKK4) > 3) | 0.1 to 1 | +++ (IC50(off-target)/IC50(MKK4) > 100) | ◯ (3 ≥ Ratio) | ◯ (3 ≥ IC50(off-target)/IC50(MKK4)) | ◯ (3 ≥ Ratio) | ◯ (30 ≤ PoC) | ◯ (3 ≥ Ratio) | CCCS(=O)(=O)Nc1ccc(F)c(C(=O)c2c[nH]c3ncc(-c4ccc(OC(F)(F)F)cc4)cc23)c1F [Example 111, N-(2,4-difluoro-3-(5-(4-(trifluoromethoxy)phenyl)-1H-pyrrolo[2,3-b]pyridine-3-carbonyl)phenyl)propane-1-sulfonamide]
+++ (IC50(off-target)/IC50(MKK4) > 100) | < 0.1 | +++ (IC50(off-target)/IC50(MKK4) > 100) | +++ (Ratio > 100) | +++ (IC50(off-target)/IC50(MKK4) > 100) | +++ (Ratio > 100) | +++ (PoC < 1) | +++ (Ratio > 100) | Cc1cc(F)ncc1-c1cnc2[nH]cc(C(=O)c3ccc(F)c(NS(=O)(=O)CCC(F)(F)F)c3F)c2c1 [Example 157, N-(2,6-difluoro-3-(5-(6-fluoro-4-methylpyridin-3-yl)-1H-pyrrolo[2,3-b]pyridine-3-carbonyl)phenyl)-3,3,3-trifluoropropane-1-sulfonamide]
+ (10 ≥ IC50(off-target)/IC50(MKK4) > 3) | 0.1 to 1 | +++ (IC50(off-target)/IC50(MKK4) > 100) | +++ (Ratio > 100) | ◯ (3 ≥ IC50(off-target)/IC50(MKK4)) | +++ (Ratio > 100) | +++ (PoC < 1) | +++ (Ratio > 100) | CCCS(=O)(=O)Nc1ccc(F)c(C(=O)c2c[nH]c3ncc(-c4ccc(C5CCC5)cc4)cc23)c1F [Example 82, N-(3-(5-(4-cyclobutylphenyl)-1H-pyrrolo[2,3-b]pyridine-3-carbonyl)-2,4-difluorophenyl)propane-1-sulfonamide]
+ (10 ≥ IC50(off-target)/IC50(MKK4) > 3) | 0.1 to 1 | +++ (IC50(off-target)/IC50(MKK4) > 100) | ++ (100 ≥ ratio > 10) | +++ (IC50(off-target)/IC50(MKK4) > 100) | ++ (100 ≥ ratio > 10) | ++ (1 ≤ PoC < 3) | ++ (100 ≥ ratio > 10) | O=C(c1cccc(NS(=O)(=O)Cc2ccccc2)c1F)c1c[nH]c2ncc(-c3cc4c(cc3Cl)OCO4)cc12 [Example 128, N-(3-(5-(6-chlorobenzo[d][1,3]dioxol-5-yl)-1H-pyrrolo[2,3-b]pyridine-3-carbonyl)-2-fluorophenyl)-1-phenylmethanesulfonamide]

Structure (SMILES) | Selectivity JNK1, IC50(off-target)/IC50(MKK4) [1] | IC50 [2] [µM] | Selectivity IVIKK7, IC50(off-target)/IC50(MKK4) [3] | selectivity based on % Ctrl @100 nM vs. MKK7 [4] | Selectivity Braf, IC50(off-target)/IC50(MKK4) [5] | selectivity based on % Ctrl @100 nM vs. Braf [6] | MKK4 [% Ctrl @ 100 nM [7] | selectivity based on % Ctrl @100 nM vs. JNK1 [8]
O=C(c1ccc(F)c(NS(=O)(=O)CCC(F)(F)F)c1F)c1c[nH]c2ncc(-c3ccc(C(F)(F)F)nc3)cc12 [Example 148, N-(2,6-difluoro-3-(5-(6-(trifluoromethyl)pyridin-3-yl)-1H-pyrrolo[2,3-b]pyridine-3-carbonyl)phenyl)-3,3,3-trifluoropropane-1-sulfonamide] | +++ (IC50(off-target)/IC50(MKK4) > 100) | < 0.1 | +++ (IC50(off-target)/IC50(MKK4) > 100) | +++ (Ratio > 100) | ++ (100 ≥ IC50(off-target)/IC50(MKK4) > 10) | +++ (Ratio > 100) | +++ (PoC < 1) | +++ (Ratio > 100)
O=C(c1cccc(NS(=O)(=O)Cc2ccccc2)c1F)c1c[nH]c2ncc(-c3ccncc3)cc12 [Example 129, N-(2-fluoro-3-(5-(pyridin-4-yl)-1H-pyrrolo[2,3-b]pyridine-3-carbonyl)phenyl)-1-phenylmethanesulfonamide] | + (10 ≥ IC50(off-target)/IC50(MKK4) > 3) | 0.1 to 1 | +++ (IC50(off-target)/IC50(MKK4) > 100) | +++ (Ratio > 100) | ++ (100 ≥ IC50(off-target)/IC50(MKK4) > 10) | +++ (Ratio > 100) | +++ (PoC < 1) | +++ (Ratio > 100)
